According to patent US20250034151A1, “WEE1 INHIBITOR, PREPARATION THEREFOR, AND USE THEREOF” (JIANGSU TASLY DIYI PHARMACEUTICAL CO., LTD., priority 2022, published 2025):
Where two headings read alike, the source gives them in different places.

Columns and labels:
[1] = Liver microsomes in vitro stability (mouse); format: in vitro ADME; conditions: read-out: T1/2/min
Experimental: 1. Preparation of Working Solution:
Microsomes were taken out from the −80° C. refrigerator, rapidly melted in a 37° C. water bath and placed on ice until ready to use. The test article was diluted with DMSO to prepare a 10 mM stock solution, and then diluted with acetonitrile to a 0.5 mM secondary stock solution. […] NADPH was diluted with Buffer C to a working solution of 6 mM for the starter solution. An acetonitrile solution containing an internal standard was prepared as the precipitant, and Verapamil-HCl was chosen as the internal standard at a concentration of 4 ng/ml.
2. Experimental Procedure:
A round-bottom well plate was taken, noted as the reaction plate, and the prepared working solution for each compound was dispensed into the well plate according to the number of replicates and time points (0 h samples were also added to the reaction plate), 30 μL/well; the plate was incubated at 37° C. for 10 min. A separate plate with pointed bottom wells, noted as a precipitation plate, was added with 135 μL precipitant per well; 0 h samples were transferred to the plate after 10 min incubation and 15 μL of starter solution was added; the plate was placed on ice before centrifugation.
The diluted starter solution was added in sufficient quantity to the dispensing plate to facilitate the multichannel pipette aspiration operation.
The reaction was carried out on a warm incubation shaker and 15 μL of starter solution/sample is added to the plate using a multichannel pipette. The reaction was mixed with a slight shake to initiate the reaction, which was accurately timed and recorded using a timer. In general, samples with shorter reaction times are initiated late and vice versa early, allowing sufficient time for multiple plate manipulation to terminate the reaction. For example, as for the four experiments of 5, 15, 30, and 60 min, the 60 min experiment was started first, and the 5 min experiment was started later, so as to leave sufficient time for the 5 min group.
After the reaction time had elapsed, all the solution in the plate was aspirated using the multichannel pipette and added to the precipitation plate to terminate the reaction at that point in time. After all reactions had been terminated, the plates were shaken for ten minutes on a plate shaker at 600 rpm to precipitate the protein. The plate was centrifuged at 4° C. for 15 minutes at maximum rpm. 80 μL of supernatant was taken, 320 μL of pure water was added and mixed for LC-MS analysis.

H1299 cells = test: Anti-proliferative effect on H1299 cells by Cell Titer-Glo; format: cell-based; conditions: 3 days
Experimental: (§1) Test Example 2: Evaluation of Cell Proliferation Inhibitory Activity
1. Evaluation of the Anti-Proliferative Effect of Compounds on H1299 Cells by the Cell Titer-Glo Method
(§2) Compound solutions of different concentration gradients were prepared. […] The cell growth group without compound was used as a positive control (maximum signal control) and the medium was used as a negative control (minimum signal control), while ensuring that the final level of DMSO in each reaction well was 0.2%. After removing the medium from the 384-well plate, 25 ul of the configured compound at different concentrations was transferred into the well plate and the compound and cells were incubated in the cell incubator at 37° C. with 5% CO2 for 3 days.
(§3) The 384-well plates were removed from the cell incubator and allowed to equilibrate for 1h to room temperature. 25 ul of Cell Titer-Glo assay was added to each well, lysed on a shaker for 2 min and then read out (Luminescence) using a BMG PHERAStar after 10 min incubation. Calculate the inhibition rate from the luminescence signal: first calculate the average of the positive control (maximum signal control) and the negative control (minimum signal control).
(§4) was used to calculate the rate of inhibition of the cells by different concentrations of the compounds. The IC50 of the compound on cell activity inhibition was calculated by fitting a log(inhibitor) vs. response-Variable slope model to GraphPad Prism 6. The fitted equation was: Y=Bottom+(Top−Bottom)/(1+10^((Log IC50−X)*HillSlope)), where Y represents the rate of inhibition and X represents the concentration of the known compound after Log.
(§5) The results of the in vitro anti-cell proliferation assays of H1299 and MIA Paca-2 for the example compounds according to the method described above are shown in Table 2, wherein the IC50 of each compound was determined and classified according to the description as follows: […]

Wee1 protein = biological target: T1, Wee1 protein (Homo sapiens, UniProt P30291); test: Binding of compound to Wee1 protein and Tracer 178 by TR-FRET (Wee1 kinase inhibitory activity); conditions: 15 nM WEE1, 50 nM Tracer 178, read-out: IC50 (inhibitory activity against Wee1 kinase)
T1 construct: purchased Thermo Fisher PR7373A
T1 sequence (P30291 whole entry): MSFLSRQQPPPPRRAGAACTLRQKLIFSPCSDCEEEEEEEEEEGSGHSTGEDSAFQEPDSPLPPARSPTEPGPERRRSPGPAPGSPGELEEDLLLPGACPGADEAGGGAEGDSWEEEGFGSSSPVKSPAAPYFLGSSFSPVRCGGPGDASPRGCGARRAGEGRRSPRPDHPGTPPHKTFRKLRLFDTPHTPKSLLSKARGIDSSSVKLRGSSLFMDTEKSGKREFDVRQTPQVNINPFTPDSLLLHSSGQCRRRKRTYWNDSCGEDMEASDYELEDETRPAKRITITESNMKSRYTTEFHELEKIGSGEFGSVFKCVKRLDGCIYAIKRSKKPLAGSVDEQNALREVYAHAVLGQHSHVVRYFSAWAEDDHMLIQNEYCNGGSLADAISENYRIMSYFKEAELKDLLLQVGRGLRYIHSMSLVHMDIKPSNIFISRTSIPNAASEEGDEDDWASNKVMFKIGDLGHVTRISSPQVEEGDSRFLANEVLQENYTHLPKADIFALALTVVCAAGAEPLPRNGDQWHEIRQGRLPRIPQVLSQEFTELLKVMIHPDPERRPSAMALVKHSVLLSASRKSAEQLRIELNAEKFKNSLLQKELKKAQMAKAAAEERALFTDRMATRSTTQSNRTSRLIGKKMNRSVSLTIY
Experimental: First, solutions of the compounds in different concentration gradients were prepared. The compounds were dissolved in DMSO and the compounds were diluted 4 folds with a total of 10 dose points and 2 parallel replicates for each concentration.
The IC50 for inhibition of enzyme activity by the compounds was then calculated using GraphPad Prism 6 and fitted with a log (inhibitor) vs. response-Variable slope mode. The fitting equation was: Y=Bottom+(Top−Bottom)/(1+10^((Log IC50−X)*HillSlope)), wherein Y represents the percentage of residual enzyme activity known and X represents the known concentration of compound after the logarithm.

MIA PaCa2 cells = test: Anti-proliferative effect on MIA PaCa2 cells by Cell Titer-Glo; format: cell-based; conditions: Homo sapiens, MIA PaCa-2, 72 h, 3 days, read-out: MIA PaCa 2 (IC50, inhibition of proliferation in vitro)
Experimental: as §1
2. Evaluation of the Anti-Proliferative Effect of Compounds on MIA PaCa2 Cells by the Cell Titer-Glo Method
as §2
as §3, with “1 h” for “1h”
as §4, with “Y=Bottom+(Top-Bottom)/(1+10^((Log” for “Y=Bottom+(Top−Bottom)/(1+10^((Log”, “wherein” for “where”
as §5

[2] = Membrane permeability study (Caco-2); format: in vitro ADME; conditions: human; for efflux ratio at 90 min, 10 µM: Caco-2, pH 7.4; for Papp A→B at 90 min, 10 µM / Papp B→A at 90 min, 10 µM: pH 7.4, Caco-2, 10 μM; for Papp A→B at 90 min, 10 µM: apical to basolateral; for Papp B→A at 90 min, 10 µM: basolateral to apical
Experimental: Caco-2 cells were purchased from the […] (Rockville, MD). The cell culture medium was modified Eagle's medium (MEM) containing 10% inactivated fetal bovine serum and 1% non-essential amino acids.
The cells were incubated for 21-28 days after inoculation for transport experiments and the apparent permeability (Papp) of Lucifer Yellow was used to characterize and verify the compactness of the cell monolayer. […] A 10 μM working solution of the compound to be tested was added to the apical side and basolateral side of Caco-2 and incubated at 37° C. for 90 min. After the incubation, dilute the samples on the apical side and basolateral side, and the concentrations of compounds on the apical and basolateral sides were detected by LC-MS/MS, and the concentrations of the compounds were quantified by standard curve.

[3] = Homo sapiens, NCI-H1299, 72 h, read-out: H1299 (IC50, inhibition of proliferation in vitro)

| SMILES | half-life at 1 µM [1] | IC50 (H1299 cells; [3]) | IC50 (Wee1 protein) | IC50 (MIA PaCa2 cells) | efflux ratio at 90 min, 10 µM [2] | Papp A→B at 90 min, 10 µM [2] | Papp B→A at 90 min, 10 µM [2] | IC50 (H1299 cells; listed as Compound61, read-out: H1299 (IC50, inhibition of proliferation in vitro)) |
| --- | --- | --- | --- | --- | --- | --- | --- | --- |
| C=CCn1c(=O)c2cnc(Nc3ccc(N4CCC(N(C)C5CN6CCC5CC6)CC4)cc3)nc2n1-c1cccc(N=S(C)(C)=O)n1 (stereo not shown) [Compound 8] | > 120 min | 5000 to 10000 nM | 5 to 10 nM | – | – | – | – | – |
| C=CCn1c(=O)c2cnc(Nc3ccc(N4CCN(C5CN6CCC5CC6)CC4)cc3)nc2n1-c1cccc(N=S(C)(C)=O)n1 (stereo not shown) [Compound 11] | 110 min | 100 to 1000 nM | 5 to 10 nM | 100 to 1000 nM | – | – | – | – |
| C=CCn1c(=O)c2cnc(Nc3ccc4c(c3)CN(C3CCN(C)CC3)C4=O)nc2n1-c1cccc(N=S(C)(C)=O)n1 [Compound 15] | > 120 min | > 10000 nM | 5 to 10 nM | 2000 to 5000 nM | – | – | – | – |
| C=CCn1c(=O)c2cnc(Nc3ccc(N4CCC(N5CC6CC5CN6C)CC4)cc3)nc2n1-c1cccc(C(C)(C)O)n1 (stereo not shown) [Compound 18] | > 120 min | 2000 to 5000 nM | 5 to 10 nM | 100 to 1000 nM | – | – | – | – |
| C=CCn1c(=O)c2cnc(Nc3ccc(N(C)[C@@H]4CN5CCC4CC5)cc3)nc2n1-c1cccc(C(C)(C)O)n1 [Compound 19] | 48.1 min | > 10000 nM | < 5 nM | > 10000 nM | – | – | – | – |
| C=CCn1c(=O)c2cnc(Nc3ccc(N4CC5CC(CN(C)C5)C4)cc3)nc2n1-c1cccc(C(C)(C)O)n1 [Compound 23] | 38.7 min | > 10000 nM | 10 to 100 nM | 2000 to 5000 nM | – | – | – | – |
| C=CCn1c(=O)c2cnc(Nc3ccc4c(c3)C(=O)N(C3CCN(C)CC3)C4)nc2n1-c1cccc(N=S(C)(C)=O)n1 [Compound 24] | > 120 min | 5000 to 10000 nM | 10 to 100 nM | 100 to 1000 nM | – | – | – | – |
| C=CCn1c(=O)c2cnc(Nc3ccc(N4C5CCC4CN(C)C5)cc3)nc2n1-c1cccc(C(C)(C)O)n1 [Compound 25] | 14.1 min | 1000 to 2000 nM | 5 to 10 nM | 1000 to 2000 nM | – | – | – | – |
| C=CCn1c(=O)c2cnc(Nc3ccc(N4CC5CCC(C4)N5C)cc3)nc2n1-c1cccc(C(C)(C)O)n1 [Compound 28] | 15 min | 100 to 1000 nM | 5 to 10 nM | 100 to 1000 nM | – | – | – | – |
| C=CCn1c(=O)c2cnc(Nc3ccc(N4CC5CC(CN(CC(F)(F)F)C5)C4)cc3)nc2n1-c1cccc(C(C)(C)O)n1 [Compound 33] | – | 1000 to 2000 nM | 10 to 100 nM | 2000 to 5000 nM | 0.83 | 9.12 ×10⁻⁶ cm/s | 7.56 ×10⁻⁶ cm/s | – |
| C=CCn1c(=O)c2cnc(Nc3ccc(N4CC5CC(CN(CCF)C5)C4)cc3)nc2n1-c1cccc(C(C)(C)O)n1 [Compound 37] | 21.7 min | 2000 to 5000 nM | 10 to 100 nM | 100 to 1000 nM | – | – | – | – |
| C=CCn1c(=O)c2cnc(Nc3ccc(N4C[C@H]5C[C@@H](C4)N5C)cc3)nc2n1-c1cccc(N=S(C)(C)=O)n1 [Compound 39] | > 120 min | 100 to 1000 nM | < 5 nM | ≤ 100 nM | – | – | – | – |
| C=CCn1c(=O)c2cnc(Nc3ccc(N4CC5CC(C4)N5C(C)C)cc3)nc2n1-c1cccc(C(C)(C)O)n1 [Compound 42] | – | 100 to 1000 nM | 10 to 100 nM | 100 to 1000 nM | 7.99 | 6.22 ×10⁻⁶ cm/s | 49.7 ×10⁻⁶ cm/s | – |
| C=CCn1c(=O)c2cnc(Nc3ccc(N4CC5CC(C4)N5C)cc3)nc2n1-c1ccc2oc(=O)n(CC)c2c1 [Compound 54] | 77 min | 2000 to 5000 nM | 5 to 10 nM | 2000 to 5000 nM | – | – | – | – |
| C=CCn1c(=O)c2cnc(Nc3ccc(N4CC5CC(C4)N5C)cc3)nc2n1-c1ccc2c(c1)C(C)(O)CO2 (stereo not shown) [Compound 57] | 43.9 min | > 10000 nM | 10 to 100 nM | > 10000 nM | – | – | – | – |
| C=CCn1c(=O)c2cnc(Nc3ccc(N4CC5CC(C4)N5C)cc3)nc2n1-c1ccc2cnn(CC)c2n1 [Compound 61] | > 120 min | – | < 5 nM | – | – | – | – | 2000 to 5000 nM |
| C=CCn1c(=O)c2cnc(Nc3ccc(C(=O)N(C)C4CN5CCC4CC5)cc3)nc2n1-c1cccc(C(C)(C)O)n1 (stereo not shown) [Compound 62] | 25.1 min | 1000 to 2000 nM | 5 to 10 nM | 100 to 1000 nM | – | – | – | – |
| C=CCn1c(=O)c2cnc(Nc3ccc(N4CC5CC(C4)N5CCO)cc3)nc2n1-c1cccc(C(C)(C)O)n1 [Compound 66] | – | 100 to 1000 nM | 5 to 10 nM | 100 to 1000 nM | – | – | – | – |
| C=CCn1c(=O)c2cnc(Nc3ccc(N4CC5CC(C4)N5CCOC)cc3)nc2n1-c1cccc(C(C)(C)O)n1 [Compound 67] | – | 100 to 1000 nM | 5 to 10 nM | ≤ 100 nM | – | – | – | – |
| C=CCn1c(=O)c2cnc(Nc3ccc(N4CC5CC(C4)N5C(C)=O)cc3)nc2n1-c1cccc(C(C)(C)O)n1 [Compound 68] | – | 1000 to 2000 nM | 10 to 100 nM | 100 to 1000 nM | – | – | – | – |
| C=CCn1c(=O)c2cnc(Nc3ccc(N4CCN(C)CC4)cc3)nc2n1-c1ccc2c(n1)OC(C)(C)CO2 [Compound 74] | – | > 10000 nM | 10 to 100 nM | > 10000 nM | – | – | – | – |
| C=CCn1c(=O)c2cnc(Nc3ccc(N4C[C@@H]5C[C@H]4CN5C)cc3)nc2n1-c1ccc2ccn(CC)c2n1 [Compound 76] | – | 100 to 1000 nM | 10 to 100 nM | 1000 to 2000 nM | – | – | – | – |
| C=CCn1c(=O)c2cnc(Nc3ccc(C4CCN(C)CC4)cc3)nc2n1-c1ccc2ccn(CC)c2n1 [Compound 77] | – | 1000 to 2000 nM | 5 to 10 nM | 1000 to 2000 nM | – | – | – | – |
| C=CCn1c(=O)c2cnc(Nc3ccc(N4CC5CC(C4)N5C)c(F)c3)nc2n1-c1cccc(C(C)(C)O)n1 [Compound 78] | – | > 10000 nM | 10 to 100 nM | 1000 to 2000 nM | – | – | – | – |
